From patent publication US11331364B2, “Use for JNK inhibitor molecules for treatment of various diseases” (Xigen Inflammation Ltd., priority 2014, dated 2022)
Square brackets hold non-standard residues; d marks the D form. Peptide text beside a SMILES is read from it.

Experiments:
[1] = dissolved in 0.9% NaCl, up to 0.4 mg/ml
Text: To receive three different doses (cf. above, groups table) it has been serially diluted (1:10 fold).

[2] = system: Endotoxin-Induced Uveitis (EIU) model in rats; assay: Action duration in endotoxin-induced uveitis (EIU), clinical scoring and PMN cells quantification; format: in vivo, rat
Protocol: […] (18) female Lewis rats (36 eyes) were randomly divided into 6 groups of 3 animals each. EIU was induced by a single footpad injection of 100 µl sterile pyrogen-free saline containing 200 µg of LPS (Lipopolysaccharides from Salmonella typhimurium, Sigma-Aldrich, France)(2 mg/ml).
Animals were treated 48 hours, 1 week, 2 weeks or 4 weeks before EIU induction by intravenous injection of the JNK inhibitor according to SEQ ID NO: 172 (“XG-104”) at a single dose of 1 mg/kg (dose volume 1 ml/kg) in the tail vein. Dexamethasone 2 mg/kg or vehicle (NaCl 0.9%) were injected intravenously immediately before EIU induction.
The effect of the JNK inhibitor according to SEQ ID NO: 172 (“XG-104”) on EIU was evaluated using clinical scoring and PMN cells quantification 24 hours after induction. Ocular examinations were performed by slit lamp at 24 hours i.e. at the clinical peak of the disease in this model. The intensity of clinical ocular inflammation was scored on a scale from 0 to 5 for each eye: • Grade 0: no inflammation, • Grade 1: presence of a minimal iris and conjunctival vasodilatation but without the observation of flare or cells in the anterior chamber (AC), • Grade 2: presence of moderate iris and conjunctival vessel dilation but without evident flare or cells in the AC, • Grade 3: presence of intense iris vessels dilation, flare and less than 10 cells per slit lamp, field in the AC, • Grade 4: presence of more severe clinical signs than grade 3, with more than 10 cells in the AC with or without the formation of a hypopyon, • Grade 5: presence of intense inflammatory reaction, fibrin formation in the AC and total seclusion of the pupil.
For histology, eighteen eyeballs (one per animal) were collected and fixed for 1 h at room temperature in phosphate buffered saline (PBS) containing 4% paraformaldehyde before being rinsed overnight in PBS. The next day, samples were embedded in optimal cutting temperature (OTC) compound (Tissue-Tek®, Sakura Finetek, Zoeterwoude, Netherland) and the optic nerve level using a cryostat (Leica CM 3050S, France) and mounted on super-frost slides for histology. After nuclei staining with DAPI (Sigma-Aldrich, France), sections were mounted in PBS/Glycerol (1/1) and observed by fluorescence photomicroscopy (FXA Microphot, Nikon, USA). Digitized micrographs were obtained usinga digital camera (Spot, BFI Optilas, France). PMN cells identified by the shape of their nuclei stained with DAPI, were quantified on histological sections. The analysis was performed with 2 different sections per eye at the optic nerve head level.
Twenty-four hours after LPS induction, clinical scores for the vehicle-treated rats were 4.6±0.2 (mean±SEM, n=8). Reduction was calculated as (grade in vehicle-treated eye—grade in test item treated eye)/(grade in vehicle-treated eye). A significant reduction (*p<0.05, **p<0.01) in the severity of the ocular inflammation was detected 24 hours after induction and intravenous treatment with the JNK inhibitor according to SEQ ID NO: 172 (“XG-104”) (1 mg/kg) administered 48 hours before EIU induction (mean score: 2.8±0.3), corresponding to a 40% (**) decrease of EIU scores compared with the score observed in vehicle group, 24 hours after induction and intravenous treatment with the JNK inhibitor according to SEQ ID NO: 172 (“XG-104”) (1 mg/kg) administered 1 week before EIU induction (mean score: 3.3±0.3), corresponding to a 27% (*) decrease of EIU scores compared with the score observed in vehicle group, and 24 hours after induction and intravenous treatment with the JNK inhibitor according to SEQ ID NO: 172 (“XG-104”) (1 mg/kg) administered 2 weeks before EIU induction (mean score: 3.0±0.2), corresponding to a 35% (**) decrease of EIU scores compared with the score observed in vehicle group. […]

hJNK1 = target: T1, hJNK1 (Homo sapiens, UniProt P45983); assay: hJNK1 | IC50; details: read-out: hJNK1 | IC50
T1 construct: His; purchased Upstate 14-327

[3] = system: Adriamycin-induced nephropathy in rats; assay: Adriamycin-induced nephropathy; format: in vivo, rat; details: 2 mg/kg IV Day 0
Text: Adriamycin treatment induces glomerular disease in rat and mice mimicking human focal segmental and glomerular sclerosis (FSGS). In this model, tubular and interstitial inflammatory lesions occur during the disease course, partly due to heavy proteinuria. In the absence of therapy, kidney disease progresses to terminal renal failure within eight weeks. Podocyte injury is one of the initial steps in the sequences leading to glomerulosclerosis. The aim of the study was to investigate whether a JNK inhibitor could prevent the development of renal lesions and the renal failure.
30 male Sprague-Dawley rats (Charles River) were used in this study (divided into 3 groups of ten rats). Nephropathy was induced by a single intravenous injection of Adriamycin […] on Day 0. The JNK inhibitor of SEQ ID NO: 172 (2 mg/kg; in NaCl 0.9%) or vehicle was administered intravenously into the tail vein on Day 0. The administration volume was 0.2 ml.
Retroorbital blood was collected at Days 7, 14, 28, 42 and 56 from 4 rats per group. Serum creatinine concentrations, blood urea and protidemia were measured using appropriate kits from Advia Chemistry 1650 (Bayer Healthcare AG, Leverkusen, Germany).
Two rats per group were sacrificed on Days 7, 14, 28, 42 and 56 after anesthesia. After animal sacrifice, both kidneys were collected. For histopathological examination fixed tissue specimens were dehydrated in graded alcohol solutions, cleared in toluene, and embedded in paraffin. Sections (4 µm) were stained with periodic acid-Schiff (PAS), and Masson's trichrome staining was performed to detect collagen deposition. Glomerular and tubulointerstitial sclerosis were quantified under microscope.

[4] = 1 mg/kg i.v. 1 week before EIU induction
[5] = 1 mg/kg i.v. 2 weeks before EIU induction
[6] = 1 mg/kg i.v. 4 weeks before EIU induction
[7] = 1 mg/kg i.v. 48 hours before EIU induction

T1 sequence (P45983 whole entry, looked up): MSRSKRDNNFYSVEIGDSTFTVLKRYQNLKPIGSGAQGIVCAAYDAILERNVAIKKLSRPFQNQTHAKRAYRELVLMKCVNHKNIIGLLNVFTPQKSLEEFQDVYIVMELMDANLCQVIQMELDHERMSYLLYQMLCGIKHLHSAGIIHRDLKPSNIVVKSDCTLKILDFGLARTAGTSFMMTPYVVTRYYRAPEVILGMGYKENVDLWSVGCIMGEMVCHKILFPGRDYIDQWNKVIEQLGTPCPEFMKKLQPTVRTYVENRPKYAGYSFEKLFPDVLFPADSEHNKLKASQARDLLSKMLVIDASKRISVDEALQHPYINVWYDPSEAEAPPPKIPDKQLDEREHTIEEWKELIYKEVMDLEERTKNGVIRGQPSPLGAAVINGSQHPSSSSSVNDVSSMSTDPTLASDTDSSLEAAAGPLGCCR

CC(C)C[C@H](NC(=O)[C@H](CC(N)=O)NC(=O)[C@H](CC(C)C)NC(=O)[C@@H](NC(=O)[C@@H](C)NC(=O)[C@@H]1CCCN1C(=O)[C@H](CCCNC(=N)N)NC(=O)[C@@H](CCCCN)NC(=O)[C@@H]1CCCN1C(=O)[C@H](CCCNC(=N)N)NC(=O)[C@@H](CCCNC(=N)N)NC(=O)[C@H](CCCNC(=N)N)NC(=O)[C@H](CCCNC(=N)N)NC(=O)[C@H](CCC(N)=O)NC(=O)[C@@H](CCCNC(=N)N)NC(=O)[C@H](CCCNC(=N)N)NC(=O)[C@H](CCCCN)NC(=O)[C@H](CCCCN)NC(=O)[C@H](N)CCCNC(=N)N)[C@@H](C)O)C(=O)N[C@H](Cc1ccccc1)C(N)=O [SEQ ID NO: 172, rKKRrQRRrRPkRPaTLNLf] (H-[dR]KKR[dR]QRR[dR]RP[dK]RP[dA]TLNL[dF]-NH2; N-terminus assumed)
solubility [1]: readily soluble and did not fall out of solution
clinical score (mean±SEM) [2, 4]: 3.3±0.3
decrease of EIU scores vs vehicle group [2, 4]: 27%
clinical score (mean±SEM) [2, 5]: 3.0±0.2
decrease of EIU scores vs vehicle group [2, 5]: 35%
number of PMN cells [2, 5]: significantly decreased
reduction of number of PMN cells vs vehicle [2, 5]: 88%
clinical score (mean±SEM) [2, 6]: 4.2±0.1
decrease of EIU scores vs vehicle group [2, 6]: 9%
number of PMN cells [2, 6]: significantly decreased
reduction of number of PMN cells vs vehicle [2, 6]: 69%
clinical score (mean±SEM) [2, 7]: 2.8±0.3
decrease of EIU scores vs vehicle group [2, 7]: 40%
IC50 (hJNK1): 722 nM
kidney histopathology (PAS, Masson trichrome) ([3]; Day 8): relatively normal appearance
kidney histopathology (PAS, Masson trichrome) ([3]; Day 56): few focal and segmental glomerulosclerosis and tubulointerstitial fibrosis
urea serum level ([3]; throughout the course of the disease): below 10 mmol/l
